# Measured values: patent publication US20080096830A1, “Anti-Inflammatory Macrolide Conjugates” (priority 2005, published 2008)
# Legend:
# [1] = system: eosinophil number in BAL fluid; test: Model of lung eosinophilia in mice; assay type: in vivo, Balb/C mice; conditions: OVA-sensitised mice, i.n. or i.p. dosing, compared to the vehicle treated control group
# Protocol: Male Balb/C mice with a body weight of 20-25 g were randomly divided into groups, and sensitized by an i.p. injection of ovalbumin (OVA, Sigma) on day zero and day fourteen. On the twentieth day, the mice were subjected to a challenge test by i.n. (intranasal) application of OVA (positive control or test group) or PBS (negative control). 48 hours after i.n. application of OVA, the animals were anaesthetized and the lungs were rinsed with 1 mL of PBS. The cells were separated on a Cytospin 3 cytocentrifuge (Shandon). The cells were stained in Diff-Quick (Dade) and the percentage of eosinophils was determined by differential counting of at least 100 cells. The compounds were administered daily i.n. or i.p. in different doses 2 days before the provocative test and up to the completion of the test. Compounds were administered as suspension either in carboxymethyl cellulose or in lactose solution. Fluticasone and beclomethasone were used as standard anti-inflammatory substances for comparison.
# [2] = molecular target: T1, Human Prostaglandin-H Synthase-2 (hPGH-2), COX-2 (Homo sapiens, UniProt P35354); test: Human prostaglandin-H synthase-2 (hPGH-2) inhibition assay in transfected COS-7 cells (PGE-2); assay type: cell-based; conditions: COS-7 cells transfected with hPGH-2, arachidonic acid 20 μM, PGE-2 readout
# T1 construct: expressed in transfected cells; host or cells: COS-7
# T1 sequence (P35354 18-604): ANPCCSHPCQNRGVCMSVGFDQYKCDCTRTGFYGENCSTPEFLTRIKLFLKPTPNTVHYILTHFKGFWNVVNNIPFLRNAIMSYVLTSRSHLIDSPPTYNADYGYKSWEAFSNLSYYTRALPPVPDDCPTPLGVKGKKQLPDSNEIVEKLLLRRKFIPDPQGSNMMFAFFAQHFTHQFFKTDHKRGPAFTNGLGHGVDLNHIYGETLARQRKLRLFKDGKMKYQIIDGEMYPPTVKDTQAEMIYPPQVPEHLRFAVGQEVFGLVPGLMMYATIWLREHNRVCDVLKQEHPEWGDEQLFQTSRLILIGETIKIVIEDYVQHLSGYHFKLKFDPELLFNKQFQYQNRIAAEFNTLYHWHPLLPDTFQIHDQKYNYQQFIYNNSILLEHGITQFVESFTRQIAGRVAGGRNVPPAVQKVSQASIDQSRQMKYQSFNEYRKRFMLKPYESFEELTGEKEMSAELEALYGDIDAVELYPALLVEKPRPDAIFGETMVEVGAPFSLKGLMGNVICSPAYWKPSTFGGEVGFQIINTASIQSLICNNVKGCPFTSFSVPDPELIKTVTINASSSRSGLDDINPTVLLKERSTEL
# Protocol: The cells were grown in 10% fetal bovine serum (FBS) in DMEM medium (Invitrogen Life Technologies) at 37° C. in an atmosphere with 5% CO2 and 90% moisture. 20 000 cells/well were plated in 96 well plate (Falcon). The cells in a negative control were cultured only in medium (NC), while the secretion of TNF-α in a positive control was stimulated by the addition of 500 pg/mL lipopolysaccharide (LPS, E. coli serotype 0111:B4, Sigma) (PC). The effect of the tested substances on TNF-α secretion was assessed after their addition to cell cultures stimulated with LPS (TS). […] The percentage inhibition of TNF-α production was calculated by the following equation: % inhibition=[1-(TS-NC)/(PC-NC)]×100. IC50 value was defined as the concentration of the substance at which 50% of TNF-α production was inhibited. […] After 30 minutes supernatants were removed and prostoglandin E2 (PGE-2) was measured with a PGE-2 assay kit (Cayman) following the manufacturer's instructions. No production of PGE-2 was detected in negative controls. % inhibition was calculated by the following equation: % inhibition=(1-sample PGE-2 concentration/positive control PGE-2 concentration)*100.
Structure (SMILES),inhibition of relative eosinophil number in BAL fluid [1],IC50 [2] [µM]
CCC1OC(=O)C(C)C(O)C(C)C(OC2OC(C)CC(N(C)C)C2O)C(C)(O)CC(C)CN(CCCNC(=O)C=Cc2cc3c(s2)-c2cc(C)ccc2Sc2ccccc2-3)C(C)C(O)C1(C)O (centres unmarked) [Compound 21],statistically significant inhibition,–
CCC1OC(=O)C(C)C(OC2CC(C)(OC)C(O)C(C)O2)C(C)C(OC2OC(C)CC(N(C)CCCNC(=O)C=Cc3cc4c(s3)-c3cc(Cl)ccc3Sc3ccccc3-4)C2O)C(C)(O)CC(C)CN(C)C(C)C(O)C1(C)O (centres unmarked) [Compound 15],–,< 10
